Where two headings read alike, the source gives them in different places.
What was measured:
[1] = test system: XBP-1 splicing in RPMI 8226 cells; assay: Inhibition of thapsigargin-induced endogenous XBP-1 splicing in RPMI 8226 cells (RT-PCR); type: cell-based, human; settings: 300 nM, 2 hours
Procedure: PCR amplification products were run on a 4% agarose gel and stained with ethidium bromide. The inverse image is shown.
Cell Culture. RPMI 8226 cells were grown in monolayer culture using Dulbecco's Modified Eagle Medium (DMEM) supplemented with 10% fetal calf serum (FCS) at 37° C. and 5% CO2. Compounds were kept as 10 mM stock in DMSO at −20° C. and diluted in medium to 10 μM, Thapsigargin (Tg) was resuspended in DMSO and diluted in medium,
RT-qPCR. Procedures for measuring XBP-1s and XBP-1u mRNAs have been described previously (Volkmann et al., J. Biol. Chem. 286, 12743-55, 2011). Briefly, total RNA was harvested from cells or tissue using TRIZOL® (Invitrogen) according to the manufacture's procedures. After ethanol, precipitation and resuspension of the RNA, RIBOGREEN® (Invitrogen) was used to quantify the yield—and normalize the RNA concentration in the source tube containing isolated RNA. RT-PCR was performed by oligo dT priming, […]® II (Invitrogen) and reverse transcription using the […] GOLD® Kit (Applied Biosystems) according to the manufacturer's protocols. Primers for human XBP-1 were
All DNA oligos were purchased from IDT DNA Technologies. PCR reactions were run on a Bio-Rad PTC-100® 96-well thermocycler; heating at 94° C. for 30 seconds, annealing at 58° C. for 30 seconds polymerizing at 72° C. for 30 seconds for 35 cycles. […]

[2] = test system: human myeloma RPMI8226 tumor xenografts; assay: RPMI8226 xenograft efficacy model; type: in vivo, SCID mice; settings: 0.75 mg/kg IV twice weekly
Procedure: SCID mice are evaluated for their ability to support implantation of desired tumor cells in support of model development and characterization. Mice are injected intravenously […] or implanted either subcutaneously (SC) or intraperitoneally (IP). To generate a relevant animal model mimicking human disease, it is desirable that all three approaches are evaluated for improved implantation rates and relevant disease progression, as is well known in the art. SC injections provide an easy way to measure tumor growth and efficacy, and IV and IP injections represent a more physiologically relevant model of human tumor spread. SC injections are given primarily in the flank, while IV injections are administered in the tail vein. Mice are manually restrained for SC and IP injections, and a Broome mouse restrainer is used for IV injections.
SCID mice are implanted with tumor cells (human RPMI8226 myeloma cells) via IP, IV or SC routes based on the results from the xenograft model development studies (above). Mice are treated with compound or mock treated (vehicle) for a period of up to 4-5 weeks. Compound administration can be via IV, IP, PO or SC routes. […]
Mice are monitored for tumor growth, regression and general health. […] Tumor growth is measured by calipers, ultrasound, or by abdominal lavage. Biomarkers in the blood or tumor can evaluated (primarily XBP-1 splicing). […]

[3] = test system: IRE-1α-mediated XBP-1 splicing in human myeloma MM.1s cells; assay: Cellular EC50: endogenous XBP-1 splicing in myeloma cells by RT-PCR (DTT stress); type: cell-based; settings: MM1.S, read-out: EC50_av
Procedure, shortened: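 MM.1s myeloma cells were pretreated with compound 1.25 h, then stressed with 2 mM DTT for 45 min more (2 h total). XBP-1 was amplified by RT-PCR from total RNA with intron-flanking primers; ED50 taken at 50% spliced XBP-1s of total XBP-1.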

[4] = target: human IRE-1α (GST-IRE-1α) (Homo sapiens (Human), UniProt O75460); assay: IRE-1α assay in vitro: cleavage of Cy5/BHQ2-labelled mini-XBP-1 mRNA stem-loop substrate; type: biochemical; settings: average IC50 for inhibition of IRE-1α
Sequence of human IRE-1α (GST-IRE-1α) (O75460 19-977): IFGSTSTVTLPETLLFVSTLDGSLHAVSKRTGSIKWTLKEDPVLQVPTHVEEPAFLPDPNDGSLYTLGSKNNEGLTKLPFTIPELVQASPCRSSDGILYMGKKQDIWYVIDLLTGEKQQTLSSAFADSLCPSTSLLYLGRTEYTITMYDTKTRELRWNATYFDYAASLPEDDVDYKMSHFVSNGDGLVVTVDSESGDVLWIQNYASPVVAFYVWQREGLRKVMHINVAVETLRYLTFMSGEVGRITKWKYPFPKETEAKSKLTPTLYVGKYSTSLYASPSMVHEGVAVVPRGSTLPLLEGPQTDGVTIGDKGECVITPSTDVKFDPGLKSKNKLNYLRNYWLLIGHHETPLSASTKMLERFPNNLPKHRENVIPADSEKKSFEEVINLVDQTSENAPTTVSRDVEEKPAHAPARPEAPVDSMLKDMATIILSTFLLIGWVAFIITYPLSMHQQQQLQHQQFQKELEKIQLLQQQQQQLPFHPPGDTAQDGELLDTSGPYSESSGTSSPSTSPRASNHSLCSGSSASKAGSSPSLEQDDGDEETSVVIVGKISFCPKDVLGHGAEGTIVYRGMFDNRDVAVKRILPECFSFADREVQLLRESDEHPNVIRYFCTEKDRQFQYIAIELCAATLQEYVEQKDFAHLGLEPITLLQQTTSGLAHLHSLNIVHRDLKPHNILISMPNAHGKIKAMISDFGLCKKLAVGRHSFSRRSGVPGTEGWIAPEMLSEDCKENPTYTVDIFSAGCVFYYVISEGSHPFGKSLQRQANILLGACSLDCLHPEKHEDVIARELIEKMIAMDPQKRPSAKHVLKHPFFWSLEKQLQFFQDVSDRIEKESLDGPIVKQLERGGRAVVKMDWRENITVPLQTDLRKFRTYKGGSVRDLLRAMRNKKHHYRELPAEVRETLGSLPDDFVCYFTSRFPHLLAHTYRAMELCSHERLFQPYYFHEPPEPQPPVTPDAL
Procedure: In some embodiments IRE-la inhibitor compounds form a complex with IRE-1α. […] Other substrates also can be used to detect cleavage. See US 2007/0105123.
A fusion protein comprising glutathione S transferase (GST) and human IRE-1α (GST-IRE-1α) obtained from a 500 ml baculovirus-infected insect cell culture can be used to measure IRE-1α activity in vitro.
Five μl of a reaction mixture comprising IX reaction buffer (5× reaction buffer is 100 mM Hepes pH 7.5, 250 mM KOAc, 2.5 mM MgCl2), 3 mM DTT, and 0.4% polyethylene glycol water is added to each well of 384 well plates. Twenty-five nanoliters of a 1 mM test compound solution are added to test wells. Three μl of a […] IRE-1α preparation are added to each test well and to positive control wells (final concentration 5.82 ng/well). Negative control wells contain only reaction mixture and test compound.
After spinning the plates at 1200 rpm for 30 seconds, 3 μl of an IRE-1α human mini-XBP-1 mRNA stem-loop substrate 5′-[…]-3′ (SEQ ID NO:1), labeled with the fluorescent dye Cy5 at the 5′ end and Black Hole Quencher 2 (BH2) at the 3′ end, are added to each well of a control plate. The plates are again spun at 1200 rpm for 30 seconds. Final concentrations for the assay are: 63 nM IRE-1α substrate, 5.82 ng IRE-1α protein, and 2.5 μM test compound.
The plates are covered with lids and incubated for one hour at 30° C. The plates are then transferred to an ACQUEST™ microplate reader. Data is analyzed using data analysis software, and the percent activity of IRE-1α is calculated.
IC50 for inhibition of IRE-1α of compounds identified in Table 1 was measured as described in EXAMPLE 35.

[5] = average cellular EC50, XBP-1 splicing in myeloma cells

Structure (SMILES)	induction of XBP-1s [1]	tumor growth [2]	EC50 [3, 5] [µM]	IC50 [4] [nM]	EC50 [3] [µM]
C/C=C(/C)C(=O)O[C@H]1C(C)=C2[C@H]([C@@H]1OC(=O)CCCCCCC)[C@@](C)(OC(C)=O)C[C@H](OC(=O)CCC)[C@@]1(O)[C@H]2OC(=O)[C@@]1(C)O [Thapsigargin]	near complete conversion of XBP-1u to XBP-1s				
CC(C)C[C@H](NC(=O)[C@H](Cc1ccccc1)NC(=O)c1cnccn1)B(O)O [bortezomib, [(1R)-3-methyl-1-[[(2S)-1-oxo-3-phenyl-2-[(pyrazinylcarbonyl)amino]propyl]amino]butyl]boronic acid]		suppression of tumor growth			
Cc1c(-c2ccc(N3CCN(C)CC3)nc2)c(=O)oc2c(C=O)c(O)ccc12 [Example 14]			< 10	< 100	
COCc1c(C)c(=O)oc2c(C=O)c(O)ccc12 [Example 137]			< 10	< 100	
CCNC(=O)CCc1c(C)c2c(OCCOC)cc(O)c(C=O)c2oc1=O [Example 155]				< 1000	< 10
CC(C)c1cc(=O)oc2c(C=O)c(O)ccc12 [Example 5]				< 100	< 10
COc1cc2c(C)c(C)c(=O)oc2c(C=O)c1O [Example 199]			> 10	< 100	
COC(=O)c1cccc(-c2nc3ccc(O)c(C=O)c3[nH]2)c1 [Example 65]				< 100	< 10
Cc1c(CC(=O)O)c(=O)oc2c(C=O)c(O)ccc12 [Example 70]				< 100	> 10
COCCOc1cc2c(C)c(CCC(=O)NCCN(C)C)c(=O)oc2c(C=O)c1O [Example 185]				< 100	> 10
COCCNC(=O)CCc1c(C)c2cc(OC)c(O)c(C=O)c2oc1=O [Example 171]				< 100	< 10
O=Cc1c(O)ccc2c1CCN(Cc1ccccc1)C2 [Example 28]			> 10	< 10000	
CCOC(=O)c1cnc(-c2cc3ccc(O)c(C=O)c3oc2=O)s1 [Example 106]			< 10	< 100	
CCc1cc2c(C)c(-c3ccc(C(=O)NCCOC)cc3)c(=O)oc2c(C=O)c1O [Example 118]			< 10	< 100	
COCOCCNC(=O)Cc1c(C)c2cc(OC)c(O)c(C=O)c2oc1=O [Example 149]			< 10	< 1000	
CCc1cc2c(C)c(-c3ccc(C(=O)N4CCOCC4)cc3)c(=O)oc2c(C=O)c1O [Example 119]				< 1000	> 10
COc1cc(O)c(C=O)c2oc(=O)c(CCC(=O)NCCN3CCOCC3)c(C)c12 [Example 196]			< 10	< 100	
COc1cc(O)c(C=O)c2oc(=O)c(CCC(=O)N3CCN(C)CC3)c(C)c12 [Example 193]			< 10	< 100	
Cc1c(-c2ccc(C(=O)N3CCOCC3)cc2)c(=O)oc2c(C=O)c(O)ccc12 [Example 12]			< 10	< 100	
Cc1nc(N2CCc3c(ccc(O)c3C=O)C2)sc1C(=O)NCCN1CCOCC1 [Example 37]			> 10	< 100	
COCCOc1cc(O)c(C=O)c2oc(=O)c(CCC(=O)NCCN3CCOCC3)c(C)c12 [Example 156]			> 10	< 1000	
Cc1nc(N2CCc3c(ccc(O)c3C=O)C2)sc1C(=O)NC1CCNCC1 [Example 35]			> 10	< 100	
COCCOc1cc(O)c(C=O)c2oc(=O)c(CCC(=O)N3CCOCC3)c(C)c12 [Example 153]			< 10	< 100	
Cc1c(CC(=O)N2CCOCC2)c(=O)oc2c(C=O)c(O)ccc12 [Example 129]			< 10	< 100	
COc1cc2c(C)c(-c3ccc(N(C)C)nc3)c(=O)oc2c(C=O)c1O [Example 115]			< 10	< 1000	
Cc1c(-c2cccc(C(=O)N(C)C)c2)c(=O)oc2c(C=O)c(O)ccc12 [Example 20]				< 1000	> 10
COc1cc(O)c(C=O)c2oc(=O)c(CCC(=O)N3CCOCC3)c(C)c12 [Example 192]			< 10	< 1000	
COc1cc2c(CN3CCOCC3)c(C)c(=O)oc2c(C=O)c1O [Example 132]			< 10	< 100	
